The text below walks through data of PMC11873939, “Target Identification with Live-Cell Photoaffinity Labeling and Mechanism of Action Elucidation of ARN23765, a Highly Potent CFTR Corrector” (Journal of Medicinal Chemistry, 2025).

As usually defined, the pEC50 is the negative decadic logarithm of the EC50, by convention in mol/L.

pEC50: −log10 of the molar value.

Assay [1] addresses T1, F508del/R1070W-CFTR (Homo sapiens, UniProt P13569, DEL508-508/R1070W).
T1 construct: CFTR identification in pull-down studies and analysis of full-length CFTR in protein maturation assays; expressed in transfected cells; host or cells: HEK293 (transient)
In words: FLIPR membrane potential assay of CFTR channel activity in transfected HEK293 cells. The class given is cell-based. The settings on record: HEK293, 24 h; ARN23765 10 nM, VX-661 3 μM. On the procedure: (§1) HS-YFP-based assay for CFTR activity
(§2) Twenty-four hours after seeding on 96-well plates, CFBE41o- cells stably over-expressing F508del-CFTR and the HS-YFP were treated with test compounds at different concentrations in the 3 nM-10 µM range.1 Cells treated with vehicle alone (DMSO) and with ARN23765, respectively, served as negative and positive controls. The following day, cells were washed with PBS containing (in mM) 137 NaCl, 2.7 KCl, 8.1 Na2HPO4, 1.5 KH2PO4, 1.0 CaCl2, and 0.5 MgCl2. Cells were then incubated for 25 min with […] of PBS plus forskolin (20 µM) and VX-770 (1 µM) to maximally stimulate F508del-CFTR. Cells were then transferred to a microplate reader (FluoStar Galaxy; BMG Labtech, Offenburg, Germany) for CFTR activity determination. The plate reader was equipped with high-quality excitation (HQ500/20X: 500 ± 10 nm) and emission (HQ535/30M: 535 ± 15 nm) filters for YFP (Chroma Technology). Each assay comprised a continuous 14 s fluorescence reading, 2 s before and 12 s after injection of […] of an iodide-containing solution (PBS with Cl- replaced by I-; final I- concentration […]). Data were normalized to the initial background-subtracted fluorescence. […]
Cell lysates or eluates from pull-down experiments were resolved by SDS-PAGE on 4-8 % tris-acetate gels (EA0378BOX, Life technologies) and were transferred into PVDF membranes (Immobilion-E IEVH00005, Millipore). […] Images were acquired with Chemidoc MP (BIO-RAD laboratories) and quantified with Image J software.
CFTR Channel function analysis by fluorometric imaging plate reader functional (FLIPR) assay FLIPR assay was performed as previously described.3 Briefly, HEK293 cells were seeded in 96-well plates (black, flat bottom, Corning) and transfected with mutated CFTR constructs. […]
µM) for 24 h at 30 °C or 37 °C. […] The plate was then read in a fluorescence plate reader (SpectraMax i3, Molecular Devices) at 37 °C (excitation: 530 nm, emission: 560 nm). […] CFTR-mediated depolarization was detected as an increase in fluorescence. […] The peak changes in fluorescence were normalized to fluorescence immediately […]

Assay [2] deals with T1, F508del/R1070W-CFTR. As to the kind of experiment: Protein maturation assay (WB, band C/(C+B)) in transfected HEK293 cells. The class given is cell-based. Particulars: HEK293, 24 h; ARN23765 10 nM, VX-661 3 μM. On the procedure:
HEK293 cells were plated in 24-wells at around 80% of confluence and transfected with constructs coding for F508del-CFTR or mutants using JetPEI reagent (101000053, Polyplus Technology) following the manufacturer’s instructions. After 24 h, the correctors were added for a further 24 h. […] For binding site analysis experiments, the cells were kept either at 37 °C (Figure S8) or moved to 30 °C (Figure 9) during incubation with the selected correctors. VX-445 and corrector 3151 were mixed together as a control for maximal protein correction. DMSO (0.2%) was added to nontreated controls. After treatment, cells were lysed in RIPA buffer [50 mM tris-HCl pH 8, 150 mM NaCl, 1% NP40, 0.5% sodium deoxycolate, 0.1% SDS, 2.0 mM EDTA] and lysates were analyzed with WB, as described in the supplementary methods of the Supporting Information.

Assay [3] relates to CFTR. In words: Live-cell photoaffinity labeling in CFTR–/– CFBE41o- cells (control). The format is binding, human. Particulars: probe 1 μM, 2 h.
Assay [4] addresses T2, F508del-CFTR (Homo sapiens, UniProt P13569, DEL508-508).
T2 construct: expressed in transfected cells
As to the kind of experiment: Live-cell photoaffinity labeling, streptavidin pull-down and CFTR Western blot. The format is binding. As to the method: (§3) Wt-CFTR or F508del-CFTR CFBE41o- cells were plated at 2–2.5 × 10^6 cells/plate in 6 cm diameter dishes. The day after, sodium butyrate (5–2.5 mM) was added for 24 h; next, the medium was exchanged with fresh one supplemented with DMSO (0.25%) (276855, Sigma-Aldrich) or probe (1 μM). For competition experiments, a 25-fold excess of ARN23765 (25 μM) was added 30 min before probe’s addition. For the analysis of “corrected” F508del-CFTR, F508del-CFTR CFBE41o- cells were kept at 27 °C for 24 h before adding the probes. Probes were incubated with cells for 2 h, then the medium was removed, and plates were washed twice with phosphate buffer saline (PBS). Cells were placed on ice and irradiated for 5 min at a wavelength of 365 nm using a 100-W UV-lamp (95–0127–02 model B100-AP, Analytik Jena). Cells were harvested with trypsin (T4299, Sigma-Aldrich), washed with PBS (D8537, Sigma-Aldrich), and pellets were stored at −80 °C until used, centrifuged at 300 × g and washed twice with PBS (D8537, Sigma-Aldrich). Pellets from in-cell photoaffinity labeling with alkyne-probes (PAP_1 and PAP_2) were lysed in PBS plus protease inhibitor cocktail (78429, Thermo Scientific) by sonication. The suspension was centrifuged at 800 × g for 20 min at 4 °C to discard nuclei and cell debris. The total extracted proteins were quantified with the bicinchoninic acid (BCA) protein assay (23225, Thermo Scientific) and subjected to CuAAC before proceeding with pull-down. Pellets from in-cell photoaffinity labeling with desthio-biotinylated (DS-biot) probes (PAP_1 DS-biot, PAP_2 DS-biot, PAP_N1 DS-biot, PAP_N2 DS-biot) were lysed with a modified RIPA buffer [50 mM tris-HCl pH 8, 150 mM NaCl, 0.5% Triton-X100, 0.2% SDS, 1 mM ethylenediaminetetraacetic acid (EDTA)] supplemented with protease inhibitor cocktail and centrifuged at 10.000× g for 10 min. The protein content in the supernatant was quantified by BCA protein assay. Protein lysate (200 μg) was diluted to 800 μL and the Triton-X100 percentage was reduced to 0.2% before proceeding to pull-down.
(§4) High capacity streptavidin agarose (20359, Thermo Scientific) (25 μL) was added to PAP-labeled cell extracts for 1 h at room temperature under gentle rotation. The streptavidin beads were collected by centrifugation and washed four times with lysis buffer. Resin-bound proteins were eluted with 45 μL of 5 mM biotin (B4501, Sigma-Aldrich) for 30 min at room temperature and analyzed with Western blot for CFTR expression. Input samples (4 and 8 μg for wt-CFTR and F508del-CFTR CFBE41o-, respectively) were collected immediately before incubation with streptavidin resin. Input and pulled-down samples were analyzed with WB as described in the supplementary methods.

Assay [5] concerns the target T2, F508del-CFTR. As to the kind of experiment: HS-YFP functional assay in CFBE41o- cells stably overexpressing F508del-CFTR. Particulars: 24 h treatment. The format is cell-based. On the procedure:
These analogues were tested in the functional assay on the human bronchial epithelia-derived cell line, CFBE41o-, which stably overexpresses F508del-CFTR and the halide-sensitive yellow fluorescent protein (HS-YFP).[31] […]
as §1
as §2, with “fluorescence. To determine I- influx rate, the final 11 s of the data for each well were fitted with an exponential function to extrapolate initial slope (dF/dt). Reproducibility of results was confirmed by performing three independent experiments.” for “fluorescence.”

The target in assay [6] is T3, wt-CFTR (Homo sapiens, UniProt P13569).
T3 construct: expressed in transfected cells
In words: Live-cell photoaffinity labeling, streptavidin pull-down and CFTR Western blot. Particulars: wt-CFTR CFBE41o- cells, probe 1 μM, 2 h, UV 365 nm. The format is binding. On the procedure: as §3
Copper-catalyzed azide–alkyne cycloaddition (CuAAC) was performed according to a previously described protocol.[62] Briefly, to the protein preparation (250 μL at 1 mg/mL protein concentration) the following reagents were added at the indicated final concentrations: 100 μM 5/6-TAMRA-azide-desthiobiotin (CLK-1110–5, Jena Bioscience), 1.0 mM tris-(2-carbossietil)phosphine (TCEP, C4706, Sigma-Aldrich), 100 μM tris-[(1-benzyl-1H-1,2,3-triazol-4-yl)methyl]amine (TBTA, 678937, Sigma-Aldrich), 1.0 mM CuSO4.5H2O (Sigma), and 0.8% sodium dodecyl sulfate (SDS). TBTA was first dissolved in DMSO at 83.5 mM and then diluted with four volumes of tert-butanol. The reaction was mixed by vortexing and incubated for 1 h at 25 °C. After the reaction time, proteins were precipitated with 5 volumes of cold acetone overnight at −20 °C. Samples were centrifuged for 20 min at 20.000× g, and the pellets were washed with methanol, air-dried, and finally resuspended with 600 μL of 1% SDS. SDS concentration was then diluted to 0.2% with PBS before proceeding to pull-down.
as §4

T2 sequence (P13569 with tags, fused parts or gaps DEL508-508): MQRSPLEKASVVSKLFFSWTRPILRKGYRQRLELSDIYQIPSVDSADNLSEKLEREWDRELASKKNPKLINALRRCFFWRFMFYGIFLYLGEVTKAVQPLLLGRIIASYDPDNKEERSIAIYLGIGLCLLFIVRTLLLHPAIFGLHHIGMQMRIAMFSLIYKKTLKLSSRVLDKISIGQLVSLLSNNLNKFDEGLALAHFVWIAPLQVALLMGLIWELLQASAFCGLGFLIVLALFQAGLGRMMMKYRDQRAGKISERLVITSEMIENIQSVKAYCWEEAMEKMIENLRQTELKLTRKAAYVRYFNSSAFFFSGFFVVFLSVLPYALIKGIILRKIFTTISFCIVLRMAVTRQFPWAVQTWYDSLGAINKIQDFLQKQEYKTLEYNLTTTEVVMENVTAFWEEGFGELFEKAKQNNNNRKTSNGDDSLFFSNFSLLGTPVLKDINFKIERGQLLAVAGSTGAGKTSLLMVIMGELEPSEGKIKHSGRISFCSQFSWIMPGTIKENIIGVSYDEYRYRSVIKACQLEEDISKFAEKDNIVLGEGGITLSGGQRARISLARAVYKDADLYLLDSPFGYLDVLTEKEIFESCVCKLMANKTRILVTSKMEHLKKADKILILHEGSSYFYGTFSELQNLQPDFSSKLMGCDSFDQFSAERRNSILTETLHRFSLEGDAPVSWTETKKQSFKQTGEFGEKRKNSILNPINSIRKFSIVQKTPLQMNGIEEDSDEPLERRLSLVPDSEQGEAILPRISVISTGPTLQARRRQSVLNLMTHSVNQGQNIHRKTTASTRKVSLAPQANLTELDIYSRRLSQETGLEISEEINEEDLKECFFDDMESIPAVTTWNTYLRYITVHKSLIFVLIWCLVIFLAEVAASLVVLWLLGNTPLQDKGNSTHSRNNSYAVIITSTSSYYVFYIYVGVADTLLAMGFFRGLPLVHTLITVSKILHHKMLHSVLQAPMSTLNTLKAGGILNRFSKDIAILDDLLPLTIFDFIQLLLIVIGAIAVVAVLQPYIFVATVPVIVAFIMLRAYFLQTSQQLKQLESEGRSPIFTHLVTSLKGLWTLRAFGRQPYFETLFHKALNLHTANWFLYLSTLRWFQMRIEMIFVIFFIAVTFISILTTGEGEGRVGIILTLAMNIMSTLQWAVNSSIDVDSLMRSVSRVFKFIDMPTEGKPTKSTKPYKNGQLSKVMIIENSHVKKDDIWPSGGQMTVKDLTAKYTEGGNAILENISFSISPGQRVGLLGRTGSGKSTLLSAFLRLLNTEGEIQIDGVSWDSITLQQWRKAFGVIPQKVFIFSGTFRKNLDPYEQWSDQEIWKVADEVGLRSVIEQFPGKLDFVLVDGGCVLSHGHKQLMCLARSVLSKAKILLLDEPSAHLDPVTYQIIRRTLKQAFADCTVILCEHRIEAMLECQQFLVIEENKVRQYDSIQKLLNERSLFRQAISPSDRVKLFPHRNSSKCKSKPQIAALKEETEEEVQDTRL
T1 sequence (P13569 with tags, fused parts or gaps DEL508-508/R1070W): as the sequence (P13569 with tags, fused parts or gaps DEL508-508) above, with R1069W counted along it
T3 sequence (P13569 whole entry): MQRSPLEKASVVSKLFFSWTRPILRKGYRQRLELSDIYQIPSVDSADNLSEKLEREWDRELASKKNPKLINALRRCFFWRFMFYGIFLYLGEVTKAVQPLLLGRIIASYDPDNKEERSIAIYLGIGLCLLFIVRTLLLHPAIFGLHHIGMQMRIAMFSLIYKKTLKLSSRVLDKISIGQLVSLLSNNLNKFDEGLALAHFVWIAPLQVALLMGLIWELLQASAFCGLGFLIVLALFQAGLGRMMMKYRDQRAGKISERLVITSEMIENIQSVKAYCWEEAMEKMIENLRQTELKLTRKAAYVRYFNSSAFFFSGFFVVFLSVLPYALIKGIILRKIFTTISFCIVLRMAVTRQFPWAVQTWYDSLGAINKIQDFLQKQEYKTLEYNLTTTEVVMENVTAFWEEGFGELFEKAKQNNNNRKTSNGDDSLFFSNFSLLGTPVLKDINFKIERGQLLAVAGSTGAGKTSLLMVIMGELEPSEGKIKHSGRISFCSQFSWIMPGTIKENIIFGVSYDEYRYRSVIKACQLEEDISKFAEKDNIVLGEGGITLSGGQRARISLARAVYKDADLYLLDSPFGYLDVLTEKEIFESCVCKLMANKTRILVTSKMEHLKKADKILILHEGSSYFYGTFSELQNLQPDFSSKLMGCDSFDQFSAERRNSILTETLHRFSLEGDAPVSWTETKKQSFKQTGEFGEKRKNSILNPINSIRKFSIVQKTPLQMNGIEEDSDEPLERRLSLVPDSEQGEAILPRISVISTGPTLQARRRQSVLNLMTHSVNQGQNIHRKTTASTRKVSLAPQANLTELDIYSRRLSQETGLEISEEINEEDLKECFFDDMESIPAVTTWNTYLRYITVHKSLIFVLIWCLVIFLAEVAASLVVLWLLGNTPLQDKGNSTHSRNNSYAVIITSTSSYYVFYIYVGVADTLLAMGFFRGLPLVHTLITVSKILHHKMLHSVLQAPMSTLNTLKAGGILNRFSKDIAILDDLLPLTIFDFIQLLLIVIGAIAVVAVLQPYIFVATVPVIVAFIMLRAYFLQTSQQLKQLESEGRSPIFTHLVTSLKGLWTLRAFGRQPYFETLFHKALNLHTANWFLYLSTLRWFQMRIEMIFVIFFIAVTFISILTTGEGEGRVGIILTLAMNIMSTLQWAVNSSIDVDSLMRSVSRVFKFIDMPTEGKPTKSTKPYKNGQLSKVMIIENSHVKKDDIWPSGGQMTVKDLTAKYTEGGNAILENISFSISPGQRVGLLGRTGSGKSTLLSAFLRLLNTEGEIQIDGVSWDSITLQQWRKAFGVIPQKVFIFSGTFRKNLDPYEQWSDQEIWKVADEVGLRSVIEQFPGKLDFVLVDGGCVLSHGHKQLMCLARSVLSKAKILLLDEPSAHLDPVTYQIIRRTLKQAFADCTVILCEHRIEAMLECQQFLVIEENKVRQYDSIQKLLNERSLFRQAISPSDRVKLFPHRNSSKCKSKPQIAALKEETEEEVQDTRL

Regarding `CC(C)(CO)c1cc2cc(NC(=O)C3(c4ccc5c(c4)OC(F)(F)O5)CC3)c(F)cc2n1C[C@@H](O)CO` [VX-661, tezacaftor, reference compound], the “F508del/R1070W channel activity (FLIPR)” value in assay [1] was “further enhanced”. Besides, the F508del/R1070W protein maturation entry in assay [2] was “further enhanced”.
As for `C[C@H]1NC(=O)N[C@H]1CCCCCC(=O)NCCOCCOCCOCCn1cc(CCC2(CCNC(=O)c3ccc(O[C@H]4CCCc5c(C(F)(F)F)nn(-c6cccc(C(=O)N(C)c7ccc8c(c7)OC(F)(F)O8)c6)c54)cc3)N=N2)nn1` [PAP_1 DS-biot, N-(2,2-Difluorobenzo[d][1,3]dioxol-5-yl)-N-methyl-3-((S)-7-(4-((2-(3-(2-(1-(18-((4S,5R)-5-methyl-2-oxoimidazolidin-4-yl)-13-oxo-3,6,9-trioxa-12-azaoctadecyl)-1H-1,2,3-triazol-4-yl)ethyl)-3H-diazirin-3-yl)ethyl)carbamoyl)phenoxy)-3-(trifluoromethyl)-4,5,6,7-tetrahydro-1H-indazol-1-yl)benzamide], the “CFTR in streptavidin pull-down (WB) after PAL” value in assay [3] was “did not detect CFTR”; in assay [4] (F508del-CFTR CFBE41o- cells, probe 1 μM, 2 h, UV 365 nm), “consistently captured”; in assay [6], “consistently captured”. For the same molecule, the “CFTR forms in streptavidin pull-down (WB) after PAL” value in assay [4] (F508del-CFTR CFBE41o- cells kept at 27 °C for 24 h (low-temperature rescue) before PAL) was “bound and pulled down both F508del-CFTR immature (band B) and mature (band C) protein”. The molecule also gave a negative-log EC50 (pEC50) in assay [5] (3 nM-10 µM range) of 6.91. Also, the “HS-YFP assay in CFBE41o- cells Emax” value in assay [5] (values normalized to DMSO-incubated cells) worked out at 2.7.
